# Source: article PMC2739159, “Evidence for inhibition of cholinesterases in insect and mammalian nervous systems by the insect repellent deet” (BMC Biology, 2009)
# Assays:
# HuBChE = target: T1, HuBChE (Homo sapiens, UniProt P06276); assay: Ellman assay, […] nm; global fit of hydrolysis inhibition and carbamoylation; type: biochemical; conditions: read-out: HuBChE (BTCh)
# T1 construct: gene BCHE; native human enzyme, commercial (Sigma Chemical Co.)
# DmAChE = target: T2, DmAChE (Drosophila melanogaster, UniProt P07140); assay: as above; type: biochemical; conditions: read-out: DmAChE (ATCh)
# T2 construct: gene Ace
smiles,measurement,setting,value
"CCN(CC)C(=O)c1cccc(C)c1 [deet, N,N-Diethyl-3-methylbenzamide]",Ki,HuBChE,370 ± 50 µM
same,Ki,DmAChE,1020 ± 30 µM
